Assay results as given in patent publication US10626094B2 (La Jolla Institute of Allergy & Immunology, priority 2014, dated 2020).

Target: LMPTP-A (Low Molecular Weight Protein Tyrosine Phosphatase-A) enzyme (Homo sapiens (Human), UniProt P24666)
Assay: LMPTP primary screening / LMPTP (OMFP) enzyme inhibition assay, fluorescence intensity
Type: biochemical
Conditions: LMPTP-A, OMFP substrate, method of Example 2; read-out: IC50
In short: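 0.625 nM LMPTP-A with 400 μM OMFP substrate in 50 mM Bis-Tris pH 6.0, 1 mM DTT, 0.01% Triton X-100, […]. Compounds at 20 μM final. Incubated 50 min at room temperature in the dark; fluorescence intensity read.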

Chain of LMPTP-A (Low Molecular Weight Protein Tyrosine Phosphatase-A) enzyme (P24666 whole entry): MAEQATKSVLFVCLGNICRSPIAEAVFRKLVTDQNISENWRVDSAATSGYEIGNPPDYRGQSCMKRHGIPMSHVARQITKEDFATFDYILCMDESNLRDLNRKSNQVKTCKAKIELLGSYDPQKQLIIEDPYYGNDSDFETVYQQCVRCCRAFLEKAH

| IC50 | Compound |
| --- | --- |
| 0.801 to 5 µM | CCOc1ccc(C(F)(F)F)c(-c2cc(NCCCN3CCCCC3)c3ccccc3n2)c1 [Compound I105] |
| 0.801 to 5 µM | CN(C)S(=O)(=O)c1ccc(C(F)(F)F)c(-c2cc(NCCCN3CCCCC3)c3ccccc3n2)c1 [Compound I106] |
| 0.801 to 5 µM | Cc1ccc(C)c(-c2cc(NCCCN3CCCCC3)c3ccccc3n2)c1 [Compound I107] |
| 0.801 to 5 µM | COc1ccc(-c2cc(NCCCN3CCCCC3)c3ccccc3n2)cc1OC [Compound I108] |
| 0.2 to 0.8 µM | Cn1ccc2cc(-c3cc(NCCCN4CCCCC4)c4ccccc4n3)ccc21 [Compound I109] |
| 0.801 to 5 µM | c1ccc2c(NCCCN3CCCCC3)cc(-c3ccc4[nH]ccc4c3)nc2c1 [Compound I110] |
| 0.801 to 5 µM | c1ccc2c(NCCCN3CCCCC3)cc(-c3ccc4nc[nH]c4c3)nc2c1 [Compound I111] |
| > 5 µM | Cc1noc(C)c1-c1cc(NCCCN2CCCCC2)c2ccccc2n1 [Compound I112] |
| 0.801 to 5 µM | CSc1ccc(-c2cc(NCCCN3CCCCC3)c3ccccc3n2)c(C(F)(F)F)c1 [Compound I114] |
| 0.801 to 5 µM | Fc1ccc(-c2cc(NCCCN3CCCCC3)c3ccccc3n2)c(F)c1F [Compound I115] |
| > 5 µM | CC(=O)Nc1ccccc1-c1cc(NCCCN2CCCCC2)c2ccccc2n1 [Compound I116] |
| 0.801 to 5 µM | CC(=O)Nc1ccc(-c2cc(NCCCN3CCCCC3)c3ccccc3n2)cc1 [Compound I117] |
| 0.801 to 5 µM | CC(=O)Nc1cccc(-c2cc(NCCCN3CCCCC3)c3ccccc3n2)c1 [Compound I118] |
| 0.801 to 5 µM | FC(F)(F)c1cc(Cl)ccc1-c1cc(NCCCN2CCCCC2)c2ccccc2n1 [Compound I119] |
| 0.801 to 5 µM | FC(F)(F)c1ccc(-c2cc(NCCCC3CCCNC3)c3ccccc3n2)c(Cl)c1 (stereo not shown) [Compound I120] |
| 0.801 to 5 µM | CS(=O)(=O)c1ccc(-c2cc(NCCCN3CCCCC3)c3ccccc3n2)c(C(F)(F)F)c1 [Compound I121] |
| 0.801 to 5 µM | Fc1ccc(-c2cc(NCCCN3CCCCC3)c3ccccc3n2)c(C(F)(F)F)c1 [Compound I122] |
| 0.801 to 5 µM | NC(=O)c1cccc(-c2cc(NCCCN3CCCCC3)c3ccccc3n2)c1 [Compound I123] |
| > 5 µM | c1ccc2[nH]c(-c3cc(NCCCN4CCCCC4)c4ccccc4n3)cc2c1 [Compound I124] |

| IC50 | Compound |
| --- | --- |
| 0.801 to 5 µM | c1ccc2c(NCCCN3CCCCC3)cc(-c3ccc4c(c3)OCCO4)nc2c1 [Compound I125] |
| 0.2 to 0.8 µM | Fc1cc(Cl)ccc1-c1cc(NCCCN2CCCCC2)c2ccccc2n1 [Compound I126] |
| 0.801 to 5 µM | O=C(O)c1cccc(-c2cc(NCCCN3CCCCC3)c3ccccc3n2)c1 [Compound I128] |
| 0.801 to 5 µM | CN(C)c1cccc(-c2cc(NCCCN3CCCCC3)c3ccccc3n2)c1 [Compound I129] |
| 0.801 to 5 µM | Fc1cccc(F)c1-c1cc(NCCCN2CCCCC2)c2ccccc2n1 [Compound I130] |
| 0.801 to 5 µM | FC(F)(F)COc1ccccc1-c1cc(NCCCN2CCCCC2)c2ccccc2n1 [Compound I131] |
| 0.801 to 5 µM | CS(=O)(=O)c1ccc(-c2cc(NCCCN3CCCCC3)c3ccccc3n2)cc1 [Compound I132] |
| 0.801 to 5 µM | COc1ccc(Cl)cc1-c1cc(NCCCN2CCCCC2)c2ccccc2n1 [Compound I133] |
| 0.801 to 5 µM | Cc1cc(Cl)ccc1-c1cc(NCCCN2CCCCC2)c2ccccc2n1 [Compound I134] |
| 0.2 to 0.8 µM | COCc1ccc(-c2cc(NCCCN3CCCCC3)c3ccccc3n2)cc1 [Compound I135] |
| > 5 µM | c1ccc2c(NCCCN3CCCCC3)cc(-c3ccsc3)nc2c1 [Compound I136] |
| 0.801 to 5 µM | CCOC(=O)c1cccc(-c2cc(NCCCN3CCCCC3)c3ccccc3n2)c1 [Compound I137] |
| 0.801 to 5 µM | c1ccc2sc(-c3cc(NCCCN4CCCCC4)c4ccccc4n3)cc2c1 [Compound I140] |
| 0.801 to 5 µM | COc1ncc(-c2cc(NCCCN3CCCCC3)c3ccccc3n2)c(OC)n1 [Compound I141] |
| 0.801 to 5 µM | Clc1ccc(-c2cc(NCCCN3CCCCC3)c3ccccc3n2)s1 [Compound I142] |
| 0.801 to 5 µM | c1ccc2c(NCCCN3CCCCC3)cc(-c3cncnc3)nc2c1 [Compound I143] |
| 0.801 to 5 µM | c1csc(-c2cc(NCCCC3CCCNC3)c3ccccc3n2)c1 (stereo not shown) [Compound I144, (3-piperidylpropyl)(2-(2-thienyl)(4-quinolyl))amine] |
| 0.801 to 5 µM | CS(=O)(=O)c1cccc(-c2cc(NCCCN3CCCCC3)c3ccccc3n2)c1 [Compound I146] |
| 0.2 to 0.8 µM | NCc1ccc(-c2cc(NCCCN3CCCCC3)c3ccccc3n2)cc1 [Compound I148] |

| IC50 | Compound |
| --- | --- |
| 0.2 to 0.8 µM | FC(F)(F)c1ccc(-c2cc(NCCCN3CCCCC3)c3ccccc3n2)c(C(F)(F)F)c1 [Compound I149] |
| > 5 µM | Cc1cc(NCCCN2CCCCC2)c2ccccc2n1 [Compound I151] |
| 0.801 to 5 µM | O=[N+]([O-])c1ccc(C(F)(F)F)c(-c2cc(NCCCN3CCCCC3)c3ccccc3n2)c1 [Compound I152] |
| 0.801 to 5 µM | FC(F)(F)c1ncccc1-c1cc(NCCCN2CCCCC2)c2ccccc2n1 [Compound I153] |
| 0.801 to 5 µM | COc1ncccc1-c1cc(NCCCN2CCCCC2)c2ccccc2n1 [Compound I154] |
| 0.801 to 5 µM | COc1ccc(-c2cc(NCCCN3CCCCC3)c3ccccc3n2)cn1 [Compound I156] |
| 0.2 to 0.8 µM | CSc1ccccc1-c1cc(NCCCN2CCCCC2)c2ccccc2n1 [Compound I158] |
| 0.801 to 5 µM | Cc1ccccc1-c1cc(NCCCN2CCCCC2)c2ccccc2n1 [Compound I159] |
| 0.801 to 5 µM | Cc1cccc(-c2cc(NCCCN3CCCCC3)c3ccccc3n2)c1C [Compound I161] |
| 0.801 to 5 µM | Fc1cccc(-c2cc(NCCCC3CCCNC3)c3ccccc3n2)c1 (stereo not shown) [Compound I162, [2-(3-fluorophenyl)(4-quinolyl)](3-piperidylpropyl)amine] |
| 0.801 to 5 µM | COc1cccc(F)c1-c1cc(NCCCN2CCCCC2)c2ccccc2n1 [Compound I164] |
| 0.2 to 0.8 µM | FC(F)(F)Oc1ccccc1-c1cc(NCCCC2CCCNC2)c2ccccc2n1 (stereo not shown) [Compound I166, (3-piperidylpropyl){2-[2-(trifluoromethoxy)phenyl](4-quinolyl)}amine] |
| 0.801 to 5 µM | c1ccc2c(NCCCN3CCCCC3)cc(-c3ccc4c(c3)OCO4)nc2c1 [Compound I167, (2-(2H-benzo[3,4-d]1,3-dioxolen-5-yl)(4-quinolyl))(3-piperidylpropyl)amine] |
| 0.801 to 5 µM | CSc1ccc(-c2cc(NCCCN3CCCCC3)c3ccccc3n2)cc1 [Compound I169] |
| > 5 µM | COc1cccc(OC)c1-c1cc(NCCCN2CCCCC2)c2ccccc2n1 [Compound I172] |
| 0.801 to 5 µM | COc1ccc(OC)c(-c2cc(NCCCN3CCCCC3)c3ccccc3n2)c1 [Compound I173] |
| 0.801 to 5 µM | COc1ccc(-c2cc(NCCCN3CCCCC3)c3ccccc3n2)c(OC)c1 [Compound I174] |
| 0.801 to 5 µM | c1c[nH]c(-c2cc(NCCCC3CCCNC3)c3ccccc3n2)c1 (stereo not shown) [Compound I175, (3-piperidylpropyl)(2-pyrrol-2-yl(4-quinolyl))amine] |
| 0.801 to 5 µM | Cc1nc(C)c(-c2cc(NCCCC3CCCNC3)c3ccccc3n2)s1 (stereo not shown) [Compound I176, [2-(2,4-dimethyl(1,3-thiazol-5-yl))(4-quinolyl)](3-piperidylpropyl)amine] |

| Compound | IC50 |
| --- | --- |
| C[Si](C)(C)c1cccc(-c2cc(NCCCN3CCCCC3)c3ccccc3n2)c1 [Compound I145] | 0.801 to 5 µM |
